Assay results published in patent publication US20230364180A1, “COMPOSITION FOR IMPROVING MILD COGNITIVE IMPAIRMENT AND METHOD FOR IMPROVING MILD COGNITIVE IMPAIRMENT” (TOKAI BUSSAN CO., LTD., priority 2019, published 2023).

What was measured:
[1] = stated as known; cited from earlier work
[2] = Proteolytic action on target protein by hydroxyl radical (FIG. 2A); type: biochemical; settings: prevention of degradation of target protein
Description: FIG. 2A is a hydroxyl radical, in which 1 is untreated target protein, 2 is no antioxidant added, 3 is IMDP added, 4 is vitamin C added, 5 is ferulic acid added, 6 is IMDP+vitamin C+ferulic acid added; and […]

[3] = stated as known; cited from earlier work; remark: listed apart in the source
[4] = Proteolytic action on target protein by peroxynitrite radical (FIG. 2B); type: biochemical; settings: prevention of degradation of target protein

Molecule: CC1=C(/C=C/C(C)=C/C=C/C(C)=C/C=C/C=C(C)/C=C/C=C(C)/C=C/C2=C(C)C(=O)[C@@H](O)CC2(C)C)C(C)(C)C[C@H](O)C1=O [astaxanthin]
- antioxidant activity against hydroxyl radicals (known) [1]: strong

Molecule: COc1cc(/C=C/C(=O)O)ccc1O [ferulic acid]
- antioxidant activity against hydroxyl radicals [2]: strong

Molecule: O=C1O[C@H]([C@@H](O)CO)C(O)=C1O [vitamin C]
- antioxidant activity against peroxynitrite radicals (known) [3]: strong
- antioxidant activity against peroxynitrite radicals [4]: strong

Molecule: vitamin E
- antioxidant activity against hydroxyl radicals (known) [1]: strong
